# Reference: PubChem BioAssay AID2060508 (Molecular Pharmacology Branch, DTP, NCI, 2025)
# Test system: 454973-116-R2-J3-PDC spheroids, viability, % test/control
# Assay: Anticancer human tumor 454973-116-R2-J3-PDC patient-derived pancreatic carcinoma cell line growth inhibition [GQUAD]
# Settings: spheroids with HUVEC and MSC; for IC50: curve of first compound; for viability, T/C: stronger effect = lower value
# Text: DNA G-quadruplex Stabilizer Agents in Combinations in Complex Spheroids
# A high-throughput screen of multi-cell type tumor spheroids was designed to identify active combinations of DNA G-quadruplex stabilizer agents and targeted small molecules. Complex spheroids include a stromal component modeled by human endothelial cells (HUVEC) and fibroblasts modeled by human mesenchymal stem cells (MSCs). The concentration ranges selected for each drug and investigational agent were based upon clinically achievable concentrations if the clinical Cmax of the agent was known.
# Compounds. The drugs and investigational agents: pidnarulex (CX-5461; NSC782164), APTO-253 (NSC789042), BRACO-19 (NSC847499), peposertib (NSC802822), ceralasertib (NSC780249), elimusertib (NSC800525), camonsertib (NSC841442), AZD-1390 (NSC803789), olaparib (NSC753686), talazoparib (NSC767125), ART-558 (NSC835418), sotorasib (NSC818433), MRTX-1133 (NSC836407), SN-38 (NSC673596), topotecan (NSC609699), etoposide (NSC141540), doxorubicin (NSC123127), gemcitabine (NSC613327), 5-fluorouracil (NSC19893), paclitaxel (NSC125973), vemurafenib (NSC761431), panobinostat (NSC761190), R-306465 (JNJ-16241199; NSC773264), adavosertib (NSC754352), TP-3654 (NSC805149), carboplatin (NSC241240), KSQ-4279 (NSC840948), and staurosporine (NSC755774) were obtained from the National Cancer Institute (NCI) Developmental Therapeutics Program Chemical Repository (34). The FDA-approved anticancer drug set is available from the NCI Developmental Therapeutics Program. […] The stock solutions were prepared in dimethyl sulfoxide (DMSO, Sigma-Aldrich, St. Louis, MO, cat. D2650) at 800-fold the tested concentration and stored at -70 degrees C prior to their use. All drugs and investigational agents were tested over a range starting from a high concentration at or near the clinical Cmax and decreasing in half-log increments. If the clinical Cmax for an agent had not been determined, the highest concentration tested was 10 microM.
# 2.3 Cell Culture. All cells were maintained in an incubator at 37 degrees C and 5% CO2 with 95% humidity. The PDC lines were cultured according to standard operating procedures established by the NCI PDMR. All PDCs were thawed and cultured in Matrigel-coated flasks prepared with a working solution of 1X Ham's F-12 nutrient mix, without supplementation (Invitrogen, cat. 11765054), 100 U/mL penicillin-streptomycin (Invitrogen, cat. 15140122), and 2.5% Matrigel (Corning Inc., cat. 354248) for the first three passages. The 857933-349-R-J2-PDC line was cultured in 6C/Colon 1B media, which includes advanced DMEM/F-12 (Thermo Fisher Scientific, cat. 12634028), 10 mM HEPES (Thermo Fisher Scientific, cat. 15630080), 1X GlutaMAX supplement (Thermo Fisher Scientific, cat. 35050061), 0.1 mg/mL primocin (InvivoGen, cat. ant-pm-2), 10% defined fetal bovine serum, heat inactivated (HyClone Laboratories Inc., cat. SH30070.03HI), 50% L-WRN conditioned media (ATCC, cat. CRL-3276), 1.25 mM N-Acetyl-L-cysteine (Sigma-Aldrich, cat. A9165), 10 mM nicotinamide (Sigma-Aldrich, cat. N0636), 1X B-27 supplement (Thermo Fisher Scientific, cat. 17504044), 1X N-2 supplement (Thermo Fisher Scientific, cat. 17502048), 10 microM Y-27632 dihydrochloride (Tocris Bioscience, cat. 1254), and 50 ng/mL human EGF recombinant protein (Thermo Fisher Scientific, cat. PHG0311). The 485176-168-R4-J1-PDC line was cultured in Panc media, which includes all 6C/Colon 1B media components plus 100 ng/mL human FGF-10 (Thermo Fisher Scientific, cat. 100-26), 500 nM SB-431542 (Selleckchem, cat. S1067), and gastrin (Tocris, cat. 3006).
# […]
# 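Further: spheroids exposed to compounds for seven days.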
structure (smiles),measurement,setting,value
Cc1[nH]c2ccccc2c1CCNCc1ccc(/C=C/C(=O)NO)cc1 + Cc1cnc(CNC(=O)c2c(=O)c3ccc(N4CCCN(C)CC4)nc3n3c2sc2ccccc23)cn1,IC50,second compound 0.0316 µM,59.6 nM
same,IC50,second compound 0.1 µM,56.9 nM
same,IC50,second compound 0.316 µM,50.5 nM
same,IC50,second compound 1 µM,41.6 nM
same,IC50,second compound 3.16 µM,34.6 nM
same,IC50,second compound 10 µM,< 0.999 nM
same,"viability, T/C","second compound 0.0316 µM, first compound 0.000999 µM",96%
same,"viability, T/C","second compound 0.0316 µM, first compound 0.00316 µM",97.9%
same,"viability, T/C","second compound 0.0316 µM, first compound 0.00999 µM",106%
same,"viability, T/C","second compound 0.0316 µM, first compound 0.0316 µM",76.2%
same,"viability, T/C","second compound 0.0316 µM, first compound 0.0999 µM",27.9%
same,"viability, T/C","second compound 0.0316 µM, first compound 0.316 µM",3.29%
same,"viability, T/C","second compound 0.1 µM, first compound 0.000999 µM",84.4%
same,"viability, T/C","second compound 0.1 µM, first compound 0.00316 µM",74.9%
same,"viability, T/C","second compound 0.1 µM, first compound 0.00999 µM",79.2%
same,"viability, T/C","second compound 0.1 µM, first compound 0.0316 µM",69.8%
same,"viability, T/C","second compound 0.1 µM, first compound 0.0999 µM",31.1%
same,"viability, T/C","second compound 0.1 µM, first compound 0.316 µM",4.46%
same,"viability, T/C","second compound 0.316 µM, first compound 0.000999 µM",69.7%
same,"viability, T/C","second compound 0.316 µM, first compound 0.00316 µM",71.8%
same,"viability, T/C","second compound 0.316 µM, first compound 0.00999 µM",74.2%
same,"viability, T/C","second compound 0.316 µM, first compound 0.0316 µM",67.1%
same,"viability, T/C","second compound 0.316 µM, first compound 0.0999 µM",24.9%
same,"viability, T/C","second compound 0.316 µM, first compound 0.316 µM",2.72%
same,"viability, T/C","second compound 1 µM, first compound 0.000999 µM",61.3%
same,"viability, T/C","second compound 1 µM, first compound 0.00316 µM",63.2%
same,"viability, T/C","second compound 1 µM, first compound 0.00999 µM",61.5%
same,"viability, T/C","second compound 1 µM, first compound 0.0316 µM",57.1%
same,"viability, T/C","second compound 1 µM, first compound 0.0999 µM",27.5%
same,"viability, T/C","second compound 1 µM, first compound 0.316 µM",0.21%
same,"viability, T/C","second compound 3.16 µM, first compound 0.000999 µM",56.4%
same,"viability, T/C","second compound 3.16 µM, first compound 0.00316 µM",64.3%
same,"viability, T/C","second compound 3.16 µM, first compound 0.00999 µM",59.1%
same,"viability, T/C","second compound 3.16 µM, first compound 0.0316 µM",52.4%
same,"viability, T/C","second compound 3.16 µM, first compound 0.0999 µM",21%
same,"viability, T/C","second compound 3.16 µM, first compound 0.316 µM",0.16%
same,"viability, T/C","second compound 10 µM, first compound 0.000999 µM",0.26%
same,"viability, T/C","second compound 10 µM, first compound 0.00316 µM",19.2%
same,"viability, T/C","second compound 10 µM, first compound 0.00999 µM",43.2%
same,"viability, T/C","second compound 10 µM, first compound 0.0316 µM",31.6%
same,"viability, T/C","second compound 10 µM, first compound 0.0999 µM",0.77%
same,"viability, T/C","second compound 10 µM, first compound 0.316 µM",0.47%
